The values that follow come from PubChem BioAssay (NCI).

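Five compound concentrations were applied to cells in 96-well plates for 48 hours; endpoints were derived by simple linear interpolation of the resulting dose-response curve. TGI denotes the concentration required for complete inhibition of growth.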 Bounds are passed on as bounds.

Common to all, as to test: NCI anticancer screen, dose series, 48 h
In test [1] the test system is SNB-19 CNS.
Test [2] deals with HCT-15 colon.
The subject of test [3] is TK-10 renal.
Test [4] deals with UACC-257 melanoma.
Test [5] deals with HOP-92 NSCLC.
The subject of test [6] is LOX IMVI melanoma.
Test [7] concerns OVCAR-4 ovarian.
Test [8] relates to SN12C renal.
Test [9] has as its system EKVX NSCLC.
In test [10] the test system is HT29 colon.
Test [11] concerns SF-539 CNS.
For test [12], the system named is NCI-H226 lung.

With `CCOC(=O)C(SCCO)C(C(=O)OCC)n1ccc(N)nc1=O` (configuration not stated), the TGI in test [1], in test [2], in test [3], in test [4], in [5] and in [6] was over 100 µM in each case. Besides, the TGI in [7], in [8], in test [9], in test [10], in test [11] and in test [12] was over 100 µM in each case.
Turning to `COc1cc2c(cc1C)NC(=O)/C2=C/c1c(Cl)[nH]c2cc(C)c(OC)cc12`, the TGI was found to be 20.4 µM in [1]; 17.5 µM in test [2]; 18 µM in test [3]; 23.7 µM in test [4]; 23.7 µM in test [5]; 15.7 µM in test [6]. For the same compound, the TGI in test [7] was determined as 18 µM; in test [8], 8.18 µM; in [9], 22.8 µM; in [10], 17.6 µM; in test [11], 1.33 µM; in [12], 50.6 µM.
In the case of `C=C1CC(OC(C)=O)/C=C(/C)CCC(C(C)(C)O)CC1O` (configuration not stated), the TGI in test [1], in test [2], in [3], in [4], in test [5] and in test [6] was over 100 µM in each case. In addition, the TGI in test [7], in [8], in test [9], in test [10], in test [11] and in [12] was over 100 µM each time.
In the case of `CCCCc1ccc(Nc2nc3c(ncn3C3OC(COC(C)=O)C(OC(C)=O)C3OC(C)=O)c(=O)[nH]2)cc1` (configuration not stated), the TGI in [1] is 81.5 µM; in [2], over 100 µM; in test [3], over 100 µM; in [4] it was 34.3 µM; in test [5], 30.4 µM; in [6], 36 µM. Also, the TGI is 52.9 µM in test [7]; 42.3 µM in [8]; over 100 µM in test [9]; 37.5 µM in test [10]; 57.9 µM in [11]; 60.6 µM in [12].
For the compound `C1CNCCN2CCCNCCN(C1)CC2`, the TGI in [1], in test [2], in test [3], in [4], in test [5] and in [6] was over 100 µM each time. The TGI in [7], in [8], in [9], in test [10], in test [11] and in test [12] was over 100 µM each time.
In the case of `O=C1CCc2c3c(c4c([nH]c5ccccc54)c2CC1)C(=O)NC3=O`, the TGI is 44.4 µM in test [1]; over 100 µM in test [2]; 39.6 µM in [3]; 19.5 µM in test [4]; 82 µM in test [5]; 21 µM in [6]. In addition, the TGI in test [7] is 13.1 µM; in test [8], over 100 µM; in [9], over 100 µM; in test [10] it was 12.1 µM; in test [11], over 100 µM; in test [12], 23.7 µM.
Consider `CC(=O)OCC1C(C(C)OC(C)=O)CCC2C1CCC1(C)C(OC(C)=O)CCC21` (configuration not stated), for which the TGI in test [1] was 42.5 µM; in test [2], 36.5 µM; in test [3], over 100 µM; in [4], 31.9 µM; in [5] it was 37.4 µM; in test [6] it was 27.9 µM. Further, the TGI in test [7] is 39.6 µM; in test [8] it was 34.8 µM; in [9] it was 32.9 µM; in test [10] it was 32.8 µM; in [11], 32.6 µM; in test [12] it was 33.6 µM.
As to `CCN(CC)CCN1c2ccccc2Sc2ccc3ccccc3c21`, the TGI in [1] stood at 29.6 µM; in test [2], 22.1 µM; in [3], 23.9 µM; in test [4] it was 21.5 µM; in test [5] it was 12.8 µM; in test [6], 21.4 µM. Further, the TGI in test [7] turned out to be 17 µM; in [8], 24.4 µM; in test [9] it was 20.1 µM; in [10] it was 12.3 µM; in [11], 29.7 µM; in [12], 19.1 µM.
For the compound `COc1ccc(C2CCc3nc4nc(N)nc(N)c4cc3C2)cc1` (configuration not stated), the TGI in [1] was 31.8 µM; in test [2], over 100 µM; in test [3], 24.9 µM; in test [4] it was over 100 µM; in test [5], 9.31 µM; in [6], 30 µM. Further, the TGI is 67.4 µM in [7]; 59.5 µM in test [8]; over 100 µM in test [9]; 94.3 µM in test [10]; 30.9 µM in [11]; over 100 µM in test [12].
`CC1=CC(c2ccccc2)OP1(=O)c1ccccc1` (configuration not stated): the TGI in test [1], in [2], in test [3], in test [4], in [5] and in [6] was over 100 µM in each case. For the same compound, the TGI in test [7], in [8], in test [9], in [10], in test [11] and in [12] was over 100 µM in each case.
`CS(C)(=O)=N/C=C\C(=O)C(Cl)(Cl)Cl`: the TGI in test [1], in test [2], in test [3], in test [4], in test [5] and in test [6] was over 100 µM each time. For the same compound, the TGI in [7], in [8], in test [9], in test [10], in test [11] and in [12] was over 100 µM throughout.
Consider `O=C(N/N=C(/COc1cccc(Cl)c1)N=Cc1ccncc1)c1ccncc1`, for which the TGI in [1], in test [2], in [3], in test [4], in [5] and in [6] was over 100 µM throughout. Besides, the TGI in test [7], in [8], in test [9], in [10], in test [11] and in [12] was over 100 µM each time.
Consider `c1ccc(Cc2cccc3cc(-c4ccc(-c5ccccc5)cc4)[nH]c23)cc1`, for which the TGI in test [1], in test [2], in test [3], in [4], in [5] and in test [6] was over 100 µM each time. The TGI in test [7], in test [8], in test [9], in test [10], in test [11] and in [12] was over 100 µM each time.
Take `CC1=C(C)C(=O)OC(C(C)(O)C2(O)CCC3(O)C4CC(Cl)C5(O)C(O)C=CC(=O)C5(C)C4CCC32C)C1` (configuration not stated): the TGI in test [1] is over 100 µM; in test [2], over 100 µM; in test [3], over 100 µM; in test [4] it was over 100 µM; in test [5] it was over 100 µM; in test [6], 46.4 µM. The TGI in test [7], in test [8], in test [9], in [10], in test [11] and in test [12] was over 100 µM throughout.
In the case of `O=C(CSc1nc2ccc(I)cc2c(=O)n1Cc1ccccc1)N/N=C/c1ccccc1`, the TGI in test [1] was 49.1 µM; in [2], over 100 µM; in test [3] it was 36.1 µM; in [4], over 100 µM; in [5], 34 µM; in test [6], over 100 µM. The TGI in test [7] was over 100 µM; in [8] it was over 100 µM; in [9], over 100 µM; in [10], over 100 µM; in [11] it was over 100 µM; in test [12], 95.9 µM.
Take `NC(=O)c1cnc2sc3ccccc3n2c1=O`: the TGI in [1], in test [2], in test [3], in test [4], in test [5] and in [6] was over 100 µM throughout. Besides, the TGI in [7], in test [8], in [9], in test [10], in test [11] and in [12] was over 100 µM throughout.
Regarding `Cn1c(-c2ccccc2)cc(-c2ccc3c(c2)OCO3)c1-c1cccs1`, the TGI in test [1], in [2], in test [3], in test [4], in test [5] and in test [6] was over 100 µM each time. Further, the TGI in test [7], in test [8], in [9], in [10], in test [11] and in [12] was over 100 µM in each case.
Consider `COc1cc(N=C(N)N=C(N)N)c2ncccc2c1`, for which the TGI in test [1], in test [2], in [3], in [4], in test [5] and in test [6] was over 100 µM each time. Further, the TGI in test [7] was over 100 µM; in [8], over 100 µM; in [9], over 100 µM; in [10], over 100 µM; in [11], over 100 µM; in test [12] it was 62.7 µM.
`COc1cc(/C=C2\C(=O)N(c3cccc(Cl)c3)C(c3ccccc3)S2(=O)=O)cc(OC)c1OC` (configuration not stated): the TGI in test [1] was over 100 µM; in test [2], over 100 µM; in test [3] it was over 100 µM; in test [4], over 100 µM; in [5], over 100 µM; in test [6] it was 97.2 µM. Also, the TGI in test [7], in test [8], in [9], in [10], in test [11] and in [12] was over 100 µM in each case.
As for `NS(=O)(=O)c1ccc(NNC(=O)c2cccc3c(=O)c4ccccc4[nH]c23)cc1`, the TGI in test [1] is over 100 µM; in test [2], over 100 µM; in test [3] it was over 100 µM; in test [4], over 100 µM; in test [5], over 100 µM; in [6], 89 µM. Besides, the TGI in [7], in test [8], in test [9], in test [10], in [11] and in test [12] was over 100 µM throughout.
`Cc1ccnc(NS(=O)(=O)c2ccc(NC(=O)c3ccc4nc5ccccc5c(Nc5ccc(S(=O)(=O)Nc6nccc(C)n6)cc5)c4c3)cc2)n1`: the TGI in test [1] was over 100 µM; in test [2], over 100 µM; in [3] it was over 100 µM; in test [4], over 100 µM; in [5] it was 55.4 µM; in test [6], over 100 µM. The TGI in test [7], in test [8], in test [9], in test [10], in test [11] and in test [12] was over 100 µM throughout.
